Test results: patent publication US6573296B2, “Therapeutic quassinoid preparations with antineoplastic, antiviral, and herbistatic activity” (priority 1997, dated 2003)
Read-outs that look alike come from different tables or passages of the source.

Columns and labels:
L1210 = test: soft agar disk diffusion zone of inhibition assay; format: cell-based, mice
C38 = test: soft agar disk diffusion zone of inhibition assay; format: cell-based, mice
CX-1 = test: soft agar disk diffusion zone of inhibition assay; format: cell-based, human
From the text: (§1) The following human tumors were used: Human adenosquamous lung tumor H-125 (7) and colon tumors H8, HCT-116, and CX-1 were used for in vitro testing only. Each human cell line was maintained in culture until plating was done. HCT-116, H8, and CX-1 were maintained in McCoy's media and heat inactivated fetal bovine serum (11% FBS). It was passaged (1:5 dilution) twice week following enzymatic dissociation using a trypsin/PBS-EDTA mixture. H-125 was maintained in CMRL/Fischer media (1:1) with 11% FBS. It was mechanically dissociated and passaged (3:10 dilution) weekly. For the plating assay, all cells were mechanically dispersed and diluted in the CMRL/Fischer. media mixture.

H8 = test: soft agar disk diffusion zone of inhibition assay; format: cell-based, human
From the text: as §1

[1] = tested on: leukemia and solid tumor cells; test: in vitro differential cytotoxicity, solid tumor versus leukemia; format: cell-based; details: for solid tumor selectivity in vitro: solid tumor versus leukemia zones
[2] = tested on: colon adenocarcinoma #38 [C38]; test: in vivo chemotherapy of SC transplanted tumor; design: species or system mice; details: for Cures / MTD Total Dose: C38; for Cures: IV at MTD, cured/total mice; for MTD Total Dose: IV, days: Glaucarubinone 3,5-10, Holacanthone 3-12, Glaucarubolone 3-6, Chaparrinone 3-9; for in vivo activity against C38, in words: mouse
From the text: (§2) Mice. Inbreds mice used were C57B1/6, C3H/He, Balb/c, and DBA/2; hybrids were: B6D2F1 (C57B1/6 females×DBA/2 males), and CD2F1 (Balb/c females×DBA/2 males). All mice were obtained from the Frederick Cancer Research Facility, Frederick, Md.
(§3) Tumors were maintained in the mouse strain of origin and were transplanted into either an appropriate F1 hybrid or the strain of origin for therapy trials. All mice were over 17 g at the start of therapy; the range of individual body weights in each experiment was within 2 g. The mice were supplied food and water ad libitum.
(§4) Antitumor Agents. The compound easily dissolved in the diluent which consisted of 3% [V/V (100%-Pure)] Ethanol, 1% (V/V) polyoxyethylanesorbitan monopalmitate (P.O.E.40) and 96% sterile distilled water. The primary route of administration was intravenous (IV).
(§5) […] Chemotherapy. The methods of protocol design, tumor transplantation, drug treatment, endpoint determination, definition of terms, toxicity evaluation, data analysis, quantification of tumor cell kill, and the biologic significance of the drug treatment results with transplantable tumors have been presented. The following is a brief summary of those methods as they apply to the work described.
(§6) The animals necessary to begin an experiment were pooled, implanted bilaterally SC on day 0 with 30 to 60 mg tumor fragments using a 12 gauge trocar, and again pooled before randomization to the various treatment and control group. Chemotherapy was either started within 3 days after tumor implantation while the number of cells per mouse was relatively small (10^7 to 10^8 cells), or allowed to grow to palpation (about 3×10^8 cells) in a more advanced stage trial.
(§7) Tumors were measured with a caliper either once or twice weekly (as needed) until either tumors exceeded 1500 mg or cure was. assured. Tumor weights were estimated from two-dimensional measurements:
(§8) Tumor Weight (mg)=(a×b^2)/2, where a and b are the tumor length and width (mm) respectively.
(§9) Tumor growth delay. (T-C value), where T is the median time (in days) required for the treatment group tumors to reach a predetermined size, and C is the median time (in days) for the control group tumors to reach the same size. Tumor-free survivors were excluded from these calculations (cures were tabulated separately).
(§10) Calculation of tumor cell kill. For SC growing tumors, the log10 cell kill was calculated from the following formula: [formula]
(§11) Where T-C is the tumor growth delay (in days) as described above and Td is the tumor volume doubling time (in days), the latter estimated from the best fit straight line from a log-linear growth plot of the control-group tumors in exponential growth (500 to 1500 mg range). The conversion of the T-C values of log10 cell kill is possible because the Td for tumors regrowing post-treatment approximated the Td values of the tumors in untreated control mice.
(§12) Determination of activity by tumor growth inhibition (T/C value). Measurements were carried out simultaneously in both the treatment and control groups. When the control group tumors reached approximately 750-1500 mg in size (median of group), the median tumor weight of each group was determined (including zeros).

[3] = tested on: mammary adenocarcinoma #16/C [Mamm 16/C]; test: in vivo chemotherapy of SC transplanted tumor; design: species or system mice; details: for MTD Total Dose: MAM 16/C, IV days: Glaucarubinone 1-11, Holacanthone 1-9/, Chaparrinone 1-6; for in vivo activity against Mam 16/C, in words: mouse
From the text: as §2, §3, §4, §5, §6, §7, §8, §9, §10, §11, §12

[4] = tested on: mammary adenocarcinoma 17/A/ADR [Mamm 17/Adr]; test: in vivo chemotherapy of SC transplanted tumor; design: species or system mice
From the text: as §2, §3, §4, §5, §6, §7, §8, §9, §10, §11, §12

M17/Adr = details: multidrug resistant, p-glycoprotein expressing mammary tumor versus leukemia
human rhinovirus-14 = test: cytopathic effect of rhinovirus in HeLa cells; format: cell-based; details: HeLa cells (Wisconsin strain), visually observed
Experimental: C. HeLa cells (Wisconsin strain, Berlin, Germany) were contacted with human rhinovirus-14. Infected cells (Wisconsin strain) were visually observed. […] HeLa cells were not killed by any compounds used. Cells of other HeLa lines (eg. ATCC CCL2) were killed. Glaucarubolone, simalikalactone D and chaparrinone were tested on cell killing and virus production by primary blood monocytes. All three drugs were tested at five concentrations (0, 10^−9, 10^−8, 10^−7, and 10^−6 M). Drugs were given at different times pre-infection, given at the time of infection, or were administered at different times post-infection.

NADH oxidase = NADH oxidase activity of soybean hypocotyl plasma membrane vesicles; format: biochemical; details: Isolated PM vesicles; read-out: ED50, Inhibition of NADH oxidase
soybean hypocotyls = test: growth of sections cut from dark-grown soybean hypocotyls; details: Excised segments of etiolated soybean hypocotyls (18 h)
Tomato plants = test: growth of plants in peat after treatment; format: in vivo
Experimental: Tomato plants about 3.5 cm high at the time of treatment were grown in peat in a flat of 1.5 inch diameter compartments and were treated with either aqueous simalikalactone (solution QD-1) or aqueous glaucarubolone (solution QD-2) containing 0.1% Triton X-100. The final volume/plant was 10 μ1 for the aqueous solution and 200 µl of the aqueous solution containing Triton X-100. […] With the aqueous treatment, plants also were inhibited but not as markedly as with detergent.

[5] = tested on: porcine pseudorabies virus; details: rabbit kidney cells, visually monitored
P388 = test: soft agar disk diffusion zone of inhibition assay; format: cell-based, mice; details: 0.25 ug/disk
[6] = tested on: pancreatic ductal adenocarcinoma #03 [PO3]; test: in vivo chemotherapy of SC transplanted tumor; design: species or system mice; details: for % T/C / Cures / Log Cell Kill / MTD Total Dose: PO3
From the text: as §2, §3, §4, §5, §6, §7, §8, §9, §10, §11, §12

MX-1 = test: soft agar disk diffusion zone of inhibition assay; format: cell-based, human; details: dose line (5, 1 or 0.3 ug/disk) not clear
C16 = test: in vivo chemotherapy of SC transplanted tumor; design: species or system mice
From the text: as §2, §3, §4, §5, §6, §7, §8, §9, §10, §11, §12

[7] = 5 ug/disk (figure before the colon)
[8] = IV days: Glaucarubinone 4-15, Peninsularinone 3-13
[9] = C16, IV days 3,5,7,9,11,13 (Twice Daily)
[10] = IV days 4,6,8,10,12,14 (Twice Daily)

CC1=CC(=O)[C@@H](O)[C@]2(C)[C@H]3[C@@]4(O)OC[C@@]35[C@@H](C[C@@H]12)OC(=O)C[C@H]5[C@@H](C)[C@H]4O [Chaparrinone]
zone of inhibition L1210 (L1210; [7]): 5:200 ZONE UNITS | zone of inhibition C38 (C38; 5 ug/disk): 920 ZONE UNITS | zone of inhibition CX-1 (CX-1; 5 ug/disk): 480 ZONE UNITS | zone of inhibition H8 (H8; 5 ug/disk): 270 ZONE UNITS | solid tumor selectivity in vitro [1]: demonstrated solid tumor selectivity | Cures [2]: 3/5 | MTD Total Dose [2]: 232 mg/kg | in vivo activity against C38, in words [2]: therapeutic activity | MTD Total Dose [3]: 90 mg/kg | in vivo activity against Mam 16/C, in words [3]: activity | % T/C ([4]; MAM 17/AdR, IV days 1-10): 42% | Cures ([4]; MAM 17/AdR, IV days 1-10): 0/5 | MTD Total Dose ([4]; MAM 17/AdR, IV days 1-10): 260 mg/kg | in vivo activity against Mam 17/Adr, in words ([4]; mouse, in vivo): activity | differential / selectivity for M17/Adr (Mam 17/Adr) (M17/Adr): demonstrated selectivity

CC(=O)O[C@H]1C(=O)O[C@@H]2C[C@H]3C(C)=CC(=O)[C@@H](O)[C@]3(C)[C@H]3[C@@]4(O)OC[C@]32[C@@H]1[C@@H](C)[C@H]4O [Holacanthone]
zone of inhibition L1210 (L1210; 12 ug/disk): 12:310 ZONE UNITS | zone of inhibition C38 (C38; 12 ug/disk): 950 ZONE UNITS | zone of inhibition CX-1 (CX-1; 12 ug/disk): 900 ZONE UNITS | solid tumor selectivity in vitro [1]: demonstrated solid tumor selectivity | Cures [2]: 0.5 | MTD Total Dose [2]: 188 mg/kg | MTD Total Dose [3]: 80 mg/kg | differential / selectivity for M17/Adr (Mam 17/Adr) (M17/Adr): demonstrated selectivity

CC[C@@H](C)C(=O)O[C@H]1C(=O)O[C@@H]2C[C@H]3C(C)=CC(=O)[C@@H](O)[C@]3(C)[C@H]3[C@@H](O)[C@H](O)[C@]4(C)OC[C@]32[C@@H]14 [simalikalactone D]
cytopathic effect of human rhinovirus-14 (human rhinovirus-14): Cytopathic effect was delayed | EC50 (NADH oxidase): 400 nM | EC50 (soybean hypocotyls; read-out: ED50, Inhibition of 2,4-D (1 μM)-induced growth): 3500 nM | EC50 (soybean hypocotyls; read-out: ED50, Inhibition of control growth): 2500 nM | effect on tomato plants, in words (Tomato plants; 1:1000 and 1:10,000 dilutions in detergent solution, 30 days after treatment): still inhibited | effect on tomato plants, in words (Tomato plants; 100 Mm diluted 1:100 in 0.1% Triton X-100): did not grow and eventually died | cytopathic effect of porcine pseudorabies virus [5]: Inhibitory effect was also observed

(−)-Peninsularinone
zone of inhibition L1210 (L1210; 0.25 ug/disk): 0.25:310 ZONE UNITS | zone of inhibition H8 (H8; 0.25 ug/disk): 510 ZONE UNITS | zone of inhibition (P388), printed in C38 column (P388): 700 (P388) ZONE UNITS | % T/C [6, 8]: 3% | Cures [6, 8]: 0/5 | Log Cell Kill [6, 8]: 2.0 | MTD Total Dose [6, 8]: 4.3 mg/kg | cytopathic effect of human rhinovirus-14 (human rhinovirus-14): Cytopathic effect was delayed | cytopathic effect of porcine pseudorabies virus [5]: Inhibitory effect was also observed

Ailanthinone
zone of inhibition L1210 (L1210; 2 ug/disk): 2:290 ZONE UNITS | zone of inhibition C38 (C38; 2 ug/disk): 340 ZONE UNITS | zone of inhibition CX-1 (CX-1; 2 ug/disk): 300 ZONE UNITS | solid tumor selectivity in vitro [1]: no solid tumor selectivity

Glaucarubinone
zone of inhibition L1210 (L1210; 0.3 ug/disk): 160 ZONE UNITS | zone of inhibition L1210 (L1210; 1 ug/disk): 300 ZONE UNITS | zone of inhibition L1210 (L1210; [7]): 600 ZONE UNITS | zone of inhibition C38 (C38; 0.3 ug/disk): 450 ZONE UNITS | zone differential between C38 and L1210 (C38; 1 ug/disk): 400 units | zone of inhibition C38 (C38; 1 ug/disk): 700 ZONE UNITS | zone of inhibition C38 (C38; 5 ug/disk): 950 ZONE UNITS | zone of inhibition CX-1 (CX-1; dose line (5, 1 or 0.3 ug/disk) not clear): 400 ZONE UNITS | zone of inhibition (MX-1), printed in H8 column (MX-1): 600 (MX-1) ZONE UNITS | zone differential for PO3 ([1]; PO3 versus L1210, compared with 400 units for C38): similar, or greater differential | solid tumor selectivity in vitro [1]: solid tumor selective | % T/C (C16; [9]): 42% | Cures (C16; [9]): 0/5 | MTD Total Dose (C16; [9]): 18 mg/kg | in vivo activity against Col26, in words (C16; mouse, in vivo): Antitumor activity | Cures [2]: 1/5 | MTD Total Dose [2]: 9.1 mg/kg | in vivo activity against C38, in words [2]: curative activity | MTD Total Dose [3]: 24 mg/kg | in vivo activity against Mam 16/C, in words [3]: Antitumor activity | % T/C [6, 10]: 0% | Cures [6, 10]: 0.6 | Log Cell Kill [6, 10]: 3.1 | MTD Total Dose [6, 10]: 16 mg/kg | % T/C [6, 8]: 15% | Cures [6, 8]: 1/6 | Log Cell Kill [6, 8]: 1.5 | MTD Total Dose [6, 8]: 16 mg/kg | in vivo activity against PO3, in words ([6]; mouse, in vivo): curative activity | differential / selectivity for M17/Adr (Mam 17/Adr) (M17/Adr): no differential

quassimarine
cytopathic effect of human rhinovirus-14 (human rhinovirus-14): Cytopathic effect was delayed | cytopathic effect of porcine pseudorabies virus [5]: Inhibitory effect was also observed
